Experimental data as given in patent publication US20220047617A1, “Nucleic acid nanocarrier drug, preparation method, pharmaceutical composition and use thereof” (BAI YAO ZHI DA (BEIJING) NANOBIO TECHNOLOGY CO., LTD., priority 2018, published 2022).
Residue numbers refer to the chain shown, from its start. Read-outs that look alike come from different tables or passages of the source. {Biotin} = biotin label attached at strand end

Legend:
MCF-7 cells [1] = assay: Cytotoxicity in MCF-7 cells (CellTiter 96 AQueous One Solution), Embodiment 33; assay type: cell-based, human; settings: MCF-7, 96 hours
Protocol: Cytotoxicity of DNAh-Biotin-EGFRapt-Cy5-Mit Nanoparticles in MCF-7 Cells
(§1) 1) Harvesting cells in a logarithmic growth phase, taking a small amount and staining with trypan blue for counting to ensure that the cell viability reaches more than 98%;
(§2) 2) adjusting the cell density to 2.22×10^4/mL with a growth medium;
(§3) 3) planting 90 μL/well of cell suspension into the 96-well plate, herein the number of cells per well in the plate is 2000;
(§4) 4) placing the planted cell plate in the incubator at 37 DEG C. and incubating overnight;
(§5) 5) performing 3.16-fold gradient dilution on the compound at 9 concentration points;
6) taking out the cell culture plate, and adding 10 μL/well of 10× concentration drug working solution to the corresponding wells of the cell culture plate, herein three replicate holes are made for each concentration, and the final drug action concentration is shown in Table 144 below;
7) placing the cell culture plate in the incubator and continuously incubating for 96 hours […]
(§6) 11) using a microplate reader to read a OD490 value of each well in the cell plate; and […]
(§7) GraphPad Prism 5.0 software is used to process data graphically. […] A calculation formula of the survival rate is as follows, the IC50 may be automatically calculated in GraphPad Prism 5.0. […]

MV4-11 cells [2] = assay: Cytotoxicity in MV4-11 cells (CellTiter 96 AQueous One Solution), Embodiment 25; assay type: cell-based; settings: MV4-11, 96 hours
Protocol: as §1
(§8) 2) adjusting the cell density to 1.11×10^5/mL with a growth medium;
(§9) 3) planting 90 μL/well of cell suspension into the 96-well plate, herein the number of cells per well in the plate is 10000;
as §4, §5
6) taking out the cell culture plate, and adding 10 μL/well of 10× concentration drug working solution to the corresponding wells of the cell culture plate, herein three replicate holes are made for each concentration, and the final drug action concentration is shown in Table 124 below;
(§10) 7) placing the cell culture plate in the incubator and continuously incubating for 96 hours; […]
as §6, §7

MCF-7 cells [3] = assay: Cytotoxicity in MCF-7 cells (CellTiter 96 AQueous One Solution), Embodiment 30; assay type: cell-based; settings: Homo sapiens, MCF7, MCF-7, 96 hours
Protocol: as §1, §2, §3, §4, §5
(§11) 6) taking out the cell culture plate, and adding 10 μL/well of 10× concentration drug working solution to the corresponding wells of the cell culture plate, herein three replicate holes are made for each concentration, and the final drug action concentration is shown in Table 134 below;
as §10, §6, §7

HCT116 cells = assay: Cytotoxicity in HCT116 cells (CellTiter-Glo), Embodiment 29; assay type: cell-based
Protocol: Cytotoxicity Research of RNAh-Bio-670-Docetaxel Nanoparticles in HCT116 Cells
1) Cell Culturing and Plating
HCT116 cells are cultured at 37 DEG C. and 5% CO2 in the DMEM basal medium in which 10% FBS and 1% PS are respectively added. The cell density used in the experiment is above 80%. The cells are collected, and centrifuged at 1000 rpm for 4 minutes, the medium is resuspended, the cell concentration is adjusted, and it is added to the 96-well plate in a volume of 5000 cells per 90 μL, and each group has 4 replicate wells.
2) Gradient drug concentration preparation and administration
After 24 hours, the compound solution is transferred to each well, 200 nM of each sample per well, and 4 replication wells.
Medium (untreated) control: only cells without compound treatment
Blank control: without cells, used for instrument zero calibration
3) Cell Culture after Administration
4) Cells Treated by Detection Kit
The well plate is brought to a room temperature in advance and stands for 30 minutes. 100 μL of a CellTiter-Glo® reagent is added to each well of the well plate and mixed for 2 minutes on a shaker to promote cell lysis. The Perkin Elmer Envision 2104 Multilabel Reader is used to read values and the values are recorded. […]
The acquired experiment data is analyzed and processed by using excel software, and GraphPad Prism 5 software is used for curve fitting analysis.

SKOV3 cells = assay: Cytotoxicity in SKOV3 cells (CellTiter 96 AQueous One Solution), Embodiment 30; assay type: cell-based; settings: Homo sapiens, SK-OV-3, SKOV3, 96 hours
Protocol: as §1, §2, §3, §4, §5, §11, §10, §6, §7

MV4-11 cells [4] = assay: Cytotoxicity in MV4-11 cells (CellTiter 96 AQueous One Solution), Embodiment 37; assay type: cell-based
Protocol: 9) adding 20 μL/well of the CellTiter 96® AQueous One Solution reagent to the cell culture plate; […]

MCF-7 cells [5] = assay: Cytotoxicity in MCF-7 cells (CellTiter 96 AQueous One Solution), Embodiment 37; assay type: cell-based, human
Protocol: Cytotoxicity of DNAh-Biotin-EGFRapt-Cy5-Idarubicin Nanoparticles in MCF-7 and MV4-11 Cells
as §1, §2, §3, §4, §5
6) taking out the cell culture plate, and adding 10 μL/well of 10× concentration drug working solution to the corresponding wells of the cell culture plate, herein three replicate holes are made for each concentration, and the final drug action concentration is shown in Table 154 below;
as §10, §6, §7

RPMI 8226 cells = assay: Cytotoxicity in RPMI 8226 cells (CellTiter 96 AQueous One Solution), Embodiment 21; assay type: cell-based; settings: Homo sapiens, RPMI 8226, 96 hours
Protocol: as §1, §8, §9, §4, §5
7) placing the cell culture plate in the incubator and continuously incubating for 96 hours;
8) placing the CellTiter 96® AQueous One Solution reagent at the room temperature and thawing for 90 minutes or thawing in a water bath at 37 DEG C., and placing at the room temperature and equilibrating for 30 minutes;
9) adding 20 μL/well of the CellTiter 96® AQueous One Solution reagent to the cell culture plate;
10) placing the cell culture plate in the incubator at 37 DEG C. and continuously incubating for 3 hours;
11) using a microplate reader to read a OD490 value of each well in the cell plate; and
12) data processing and analysis.
as §7

[6] = TM value detection by solubility curve method (SYBR Green I); assay type: physicochemical; settings: extension fragment deformation+core short-sequence RNA nanoparticles; temperature at ½ RFUmax in 20 to 90 DEG C. taken as Tm
Protocol: A solubility curve method is used to detect TM values of the 7 groups of the extension fragment deformation+core short-sequence RNA nanoparticles, and the samples are consistent with the potential samples.
(1) After the sample is diluted with ultrapure water, 5 μg of the diluted sample is mixed with 2 μL of SYBR Green I dye (diluted by 1:200), a final volume is 20 μL, and the dilution concentration is as follows:
(2) It is incubated for 30 min in the dark at a room temperature; and
(3) On-machine detection is performed, a program is set to start at 20 DEG C., the temperature rises per second from 0.1 DEG C. to 95 DEG C., and reading is performed every 5 s.
Due to the particularity of the RNA samples, a temperature corresponding to ½ RFUmax in a range of 20 to 90 DEG C. is used as a sample Tm value in this test.
A solubility curve method is used to detect TM values of the 7 groups of the extension fragment deformation+core short-sequence DNA nanoparticles, and the samples are consistent with the potential samples.

[7] = compared with DNAh targeted fluorescent carrier

Molecule `O=C1c2c(O)ccc(O)c2C(=O)c2c(NCCNCCO)ccc(NCCNCCO)c21` [Mit (mitoxantrone)] has an IC50 (MCF-7 cells [1]) of 538 nM.

In the case of `Nc1ccn([C@@H]2O[C@H](CO)[C@@H](O)[C@@H]2O)c(=O)n1` [cytarabine], the IC50 (MV4-11 cells [2]; Homo sapiens) is reported as 1250 nM and the “toxicity to the MV4-11 cells (in words)” value (MV4-11 cells [2]; [7]) is reported as “toxic”.

In the case of `CC(=O)O[C@@]12CO[C@@H]1C[C@H](O)[C@@]1(C)C(=O)[C@H](O)C3=C(C)[C@@H](OC(=O)[C@H](O)[C@@H](NC(=O)OC(C)(C)C)c4ccccc4)C[C@@](O)([C@@H](OC(=O)c4ccccc4)[C@H]21)C3(C)C` [docetaxel], the IC50 (MCF-7 cells [3]; read-out: IC50) is reported as under 1 nM, the IC50 (MCF-7 cells [3]; read-out: IC50 acting on the MCF-7 cells) is reported as under 1 nM and the cell survival rate (HCT116 cells; HCT116, treatment time 72 h, drug concentration 200 nM) is reported as 10.68%. For the same molecule, the inhibition at 0.2 µM (HCT116 cells; Homo sapiens, HCT-116, HCT116, drug concentration 200 nM, 72 hours, read-out: cell inhibition rates) was 50.5%, the IC50 (SKOV3 cells; read-out: IC50) was under 1 nM and the IC50 (SKOV3 cells; read-out: IC50 acting on the SKOV3 cells) was under 1 nM.

With `CC(=O)[C@]1(O)Cc2c(O)c3c(c(O)c2[C@@H](O[C@H]2C[C@H](N)[C@H](O)[C@H](C)O2)C1)C(=O)c1ccccc1C3=O` [idarubicin] the IC50 (MV4-11 cells [4]; Homo sapiens, MV4-11 cell line, 96 hours incubation, CellTiter 96 AQueous One Solution, OD490) was under 1 nM, the “toxicity to the MV4-11 cells (in words)” value (MV4-11 cells [4]; MV4-11, 96 hours, compared with DNAh targeted fluorescent carrier) was “toxic” and the IC50 (MCF-7 cells [5]; Homo sapiens, MCF7, MCF-7 cell line, 96 hours incubation, CellTiter 96 AQueous One Solution, OD490) was 72.5 nM. The “toxicity to the MCF-7 cells (in words)” value (MCF-7 cells [5]; MCF-7, 96 hours, compared with DNAh targeted fluorescent carrier) was “toxic”.

Work on `Nc1cccc2c1CN(C1CCC(=O)NC1=O)C2=O` (stereo not shown) [lenalidomide, 3-(7-amino-3-oxo-1H-isoindol-2-yl) piperidine-2,6-dione] yielded an IC50 (RPMI 8226 cells; read-out: IC50) of 72300 nM and an IC50 (RPMI 8226 cells; read-out: IC50 acting on the RPMI 8226 cells) of 72300 nM.

With `O=C1c2c(O)ccc(O)c2C(=O)c2c(NCCNCCO)ccc(NCCNCCO)c21` [mitoxantrone] the “toxicity to the MCF-7 cells (in words)” value (MCF-7 cells [1]; [7]) was “toxic”.

B1: R-21: extension fragment deformation+core short-sequence RNA nanoparticles, strands SEQ ID NO: 138-140, a-strand 3′-biotin, 2′F (nucleic acid)
chain 1: GCGGCGAGCGGCGACGAGCGUUGCGGCCGGAGGCCGG
chain 2: CCGGCCUCCGGCCGCUUCGGCGCCAGCCGCC
chain 3: GGCGGCAGGCGCCCAUAGCCGUCGCCGCUCGCCGC
modifications: RNA nanoparticle strands, 2'-fluoro modified, a-strand 3'-biotin, positions not given here
Molecule B1 has a TM value [6] of 65.0 °C.

B2: R-18: extension fragment deformation+core short-sequence RNA nanoparticles, strands SEQ ID NO: 129-131, a-strand 3′-biotin, 2′F (nucleic acid)
chain 1: B1 chain 1 with C15G, G16C, G23C, C24G
chain 2: B1 chain 2 with G14C, C15G
chain 3: B1 chain 3 with C20G, G21C
modifications: chain 1: 3' {Biotin}, sugars by position and backbone not given here; chain 2: sugars by position and backbone not given here; chain 3: sugars by position and backbone not given here; RNA nanoparticle, 2'-fluoro modified
Work on B2 yielded a TM value [6] of 54.5 °C.

B3: R-17: extension fragment deformation+core short-sequence RNA nanoparticles, strands SEQ ID NO: 126-128, a-strand 3′-biotin, 2′F (nucleic acid)
chain 1: B1 chain 1 with C15G, C24G
chain 2: B1 chain 2 with G14C, G20C
chain 3: B1 chain 3 with C12G, G21C
modifications: chain 1: 3' {Biotin}, sugars by position and backbone not given here; chain 2: sugars by position and backbone not given here; chain 3: sugars by position and backbone not given here; RNA nanoparticle, 2'-fluoro modified
With B3 the TM value [6] was 55.2 °C.

B4: R-15: extension fragment deformation+core short-sequence RNA nanoparticles, strands SEQ ID NO: 120-122, a-strand 3′-biotin, 2′F (nucleic acid)
chain 1: B1 chain 1 with C15G, C24G
chain 2: B1 chain 2 with G14C, C21G
chain 3: B1 chain 3 with G11C, G21C
modifications: chain 1: 3' {Biotin}, sugars by position and backbone not given here; chain 2: sugars by position and backbone not given here; chain 3: sugars by position and backbone not given here; RNA nanoparticle, 2'-fluoro modified
B4 showed a TM value [6] of 57.5 °C.

B5: R-19: extension fragment deformation+core short-sequence RNA nanoparticles, strands SEQ ID NO: 132-134, a-strand 3′-biotin, 2′F (nucleic acid)
chain 1: B1 chain 1 with C15G, G16C, G23C, C24G
chain 2: B1 chain 2 with G14C, C15G, G22C
chain 3: B1 chain 3 with C10G, C20G, G21C
modifications: RNA nanoparticle strands, 2'-fluoro modified, a-strand 3'-biotin, positions not given here
Work on B5 yielded a TM value [6] of 54.0 °C.

B6: R-16: extension fragment deformation+core short-sequence RNA nanoparticles, strands SEQ ID NO: 123-125, a-strand 3′-biotin, 2′F (nucleic acid)
chain 1: B1 chain 1 with C15G, G16C, G23C, C24G
chain 2: B1 chain 2 with G14C, C15G, G20C
chain 3: B1 chain 3 with C12G, C20G, G21C
modifications: chain 1: 3' {Biotin}, sugars by position and backbone not given here; chain 2: sugars by position and backbone not given here; chain 3: sugars by position and backbone not given here; RNA nanoparticle, 2'-fluoro modified
For B6, the TM value [6] was 53.8 °C.
